Reference: patent publication US20250354125A1, “HIGH-[…]-TERM CULTURED E[…] WITH ANGIOGENESIS” (priority 2024, published 2025)
Ends that are not written are not given here.

Assays:
[1] = test system: HUVEC Endothelial organoids; assay: Organoid stimulation with IL-1β and TGF-β and treatment with PIEZO1 or ROCK inhibitor; EndMT and endothelial marker expression; assay type: cell-based, human; settings: FIG. 14a/14b; for TAGLN expression / fibronectin expression: EndMT marker
Description: (§1) HUVEC Endothelial organoids were seeded in 384-well U-bottom ULA plates (S-bio #MS-9384UZ, lot 20839306) and centrifuged at 1,000 rpm for 5 min (142 rcf, Thermo Scientific Sorvall ST16 centrifuge). Endothelial organoid seeding volume was 25 μL per well. The HUVEC organoid seeding solution consisted of 120,000 HUVEC cells/mL, 160 μg/mL Matrigel (Corning #356-231, 10.7 mg/mL), 10% FBS (GeminiBio #900-108) and 0.24% methylcellulose (Methocel, Sigma Aldrich #94378). A key procedure being to add cold Matrigel into warm media to induce gelling.

[2] = test system: HUVEC Endothelial organoids; assay: LPS and TNF-α stimulated endothelial organoid; E-selectin immunofluorescence and bright field imaging; assay type: cell-based, human
Description: as §1
Fixed HUVEC Organoids were washed with PBS and permeabilized with 0.1% Tween in PBS for 10 min at 4° C. Samples were incubated with Organoid washing buffer (OWB, 0.2% BSA/0.1% Triton-X-100 in PBS) to prevent non-specific binding for 15 min at 4° C. Samples were incubated with primary antibodies in OWB at 4° C. overnight. Primary antibodies include: SELE Rabbit pAb (ABclonal, #A2191, Lot 5500024697, 1:1,000 dilution), Human VE-Cadherin Antibody (R&D systems, #AF938, 1:40 dilution) and Mouse anti-CD34 antibody (Clone QBEND/10, Invitrogen #MA1-10202, 1:500 dilution). Samples were washed with OWB and incubated with secondary antibodies or Alexa Fluor 647 Phalloidin (Invitrogen, #A22287, Lot 2170291, 1:400 dilution) in OWB for 2 hours at room temperature (RT). Secondary antibodies include: Goat anti-Rabbit Alexa Fluor 647 (Invitrogen, #A-21244, Lot 2134003, 1:500 dilution), Donkey anti-rat Alexa Fluor 488 (1:2,000 dilution), Goat anti-mouse Alexa Fluor 488 (Thermo Fisher, #A-11001, 1:2,000 dilution) and Donkey anti-mouse Alexa Fluor 568 (Invitrogen #A10037, 1:1,000 dilution). Organoids were washed with PBS and incubated with DAPI in PBS for 30 min at RT and imaged using Spinning disk Confocal microscope (Nikon, CSU-W1) with 10×, 20× and 60× magnification. E-selectin, Integrin α6 and CD34 stained organoids were performed without permeabilization step, VE-Cadherin and Phalloidin stained organoids were performed with permeabilization step
There is currently a lot of research being conducted on endothelial cells in relation to inflammation. […]

| Molecule | TAGLN expression [1] | fibronectin expression [1] | PECAM1 expression [1] | changes in the bright field (BF) ([2]; after 24 hours of treatment) | E-selectin signal on the surface of the organoids ([2]; fluorescent staining after 24 hours of treatment, compared to the control group, FIG. 11) | E-selectin fluorescence in relation to concentration ([2]; fluorescent staining, FIG. 11) |
| --- | --- | --- | --- | --- | --- | --- |
| IL-1β: cytokine used for organoid stimulation; its effect indicated an inflammatory response | without affecting fibronectin or TAGLN levels | without affecting fibronectin | reduced PECAM1 expression | – | – | – |
| C[C@@H](N)[C@H]1CC[C@H](C(=O)Nc2ccncc2)CC1 [Y-27632] | TAGLN expression remained unchanged | elevated fibronectin levels | increased PECAM1 expression | – | – | – |
| TNF-α | – | – | – | no significant changes were observed | showed expression of the E-selectin signal | increase in fluorescence proportional to their concentrations |
| GsMTx4: PIEZO1 inhibitor (GCLEFWWKCNPNDDKCCRPKLKCSKLFKLCNFSF; ends and bridges not checked; cysteine pairing not given here; UniProt Q7YT39 47-80, looked up) | did not alter TAGLN | decreased fibronectin expression | – | – | – | – |
